A word on the IC50: it is the midpoint of a concentration-inhibition curve.

Some results are limits rather than exact numbers.

A short description of this assay: Inhibition of HIV1 YU2 gp120 binding to CD4 expressing Cf2Th-CD4/CCR5 cells assessed as inhibition of viral infection after 48 hrs.
Take `Cc1cc(Cl)ccc1NC(=O)C(=O)NC1CC(C)(C)NC(C)(C)C1` [N1-(4-chloro-2-methylphenyl)-N2-(2,2,6,6-tetramethylpiperidin-4-yl)oxalamide]: the IC50 is above 100 µM. The figure for `O=C(NCC1CCN(CCN2CCOCC2)C1)C(=O)Nc1ccc(Cl)c(F)c1` (stereo not given) [N1-(4-chloro-3-fluorophenyl)-N2-((1-(2-morpholinoethyl)pyrrolidin-3-yl)methyl)oxalamide] is above 100 µM; for `CCN(CC)C(CNC(=O)C(=O)Nc1ccc(Cl)c(F)c1)CC(C)C` (stereo not given) [N1-(4-chloro-3-fluorophenyl)-N2-(2-(diethylamino)-4-methylpentyl)oxalamide] it is above 100 µM. Under `COc1cccc(NC(=O)C(=O)Nc2ccc(Cl)cc2)c1` [N1-(4-chlorophenyl)-N2-(3-methoxyphenyl)oxalamide] stands above 100 µM.

`O=C(Nc1ccc(Cl)cc1)Nc1ncnc2nc[nH]c12` [1-(4-chlorophenyl)-3-(9H-purin-6-yl)urea]: the IC50 was above 100 µM. As for `C[C@@H]1CN(CCC(=O)Nc2ccc(Br)cc2)C[C@H](C)O1` [(2R,6S)-4-(3-(4-bromophenylamino)-3-oxopropyl)-2,6-dimethylmorpholin-4-ium], the IC50 was above 100 µM. With `O=C(NC[C@@]12CCC[C@@H]1CNC2)C(=O)Nc1ccc(Cl)c(F)c1` [N1-(4-chloro-3-fluorophenyl)-N2-(((3aS,6aS)-octahydrocyclopenta[c]pyrrol-3a-yl)methyl)oxalamide], the concentration for half-maximal inhibition (IC50) was 68.3 µM. For `CC1(C)CC(NC(=O)C(=O)Nc2ccc(Cl)c(F)c2)CC(C)(C)N1` [N1-(4-chloro-3-fluorophenyl)-N2-(2,2,6,6-tetramethylpiperidin-4-yl)oxalamide], the IC50 came out at 74.8 µM. `Cn1ccnc1C(O)(CCNC(=O)C(=O)Nc1ccc(Cl)c(F)c1)C(F)(F)F` (stereo not given) [N1-(4-chloro-3-fluorophenyl)-N2-(4,4,4-trifluoro-3-hydroxy-3-(1-methyl-1H-imidazol-2-yl)butyl)oxalamide]: the IC50 is above 100 µM. For the compound `O=C(Nc1ccc(Cl)c(F)c1)C(=O)Nc1cccc2[nH]ncc12` [N1-(4-chloro-3-fluorophenyl)-N2-(1H-indazol-4-yl)oxalamide], the IC50 is above 100 µM. Under `CN1CCCC(ONC(=O)C(=O)Nc2ccc(Cl)c(F)c2)C1` (stereo not given) [N1-(4-chloro-3-fluorophenyl)-N2-(1-methylpiperidin-3-yloxy)oxalamide] stands above 100 µM; under `CN1CCN(C(CNC(=O)C(=O)Nc2ccc(Cl)c(F)c2)c2cccs2)CC1` (stereo not given) [N1-(4-chloro-3-fluorophenyl)-N2-(2-(4-methylpiperazin-1-yl)-2-(thiophen-2-yl)ethyl)oxalamide], above 100 µM; under `CC1(C)CC(NC(=O)C(=O)Nc2ccc(Cl)cc2C(F)(F)F)CC(C)(C)N1` [N1-(4-chloro-2-(trifluoromethyl)phenyl)-N2-(2,2,6,6-tetramethylpiperidin-4-yl)oxalamide], above 100 µM. The figure for `O=C(CSCc1cc(=O)[nH][nH]1)Nc1ccc(Br)cc1` [N-(4-bromophenyl)-2-((5-hydroxy-1H-pyrazol-3-yl)methylthio)acetamide] is above 100 µM. The figure for `O=C(NCC1COc2ccccc2O1)C(=O)Nc1ccc(Br)cc1` (stereo not given) [N1-(4-bromophenyl)-N2-((2,3-dihydrobenzo[b][1,4]dioxin-2-yl)methyl)oxalamide] is above 100 µM.

For `Cc1cccc(-c2cc(C(=O)Nc3ccc(Cl)cc3)[nH]n2)c1O` [N-(4-chlorophenyl)-5-(2-hydroxy-3-methylphenyl)-1H-pyrazole-3-carboxamide], the IC50 was above 100 µM. Under `CNC(=O)c1ccc(CNC(=O)C(=O)Nc2ccc(Cl)c(F)c2)cc1` [N1-(4-chloro-3-fluorophenyl)-N2-(4-(methylcarbamoyl)benzyl)oxalamide] stands above 100 µM; under `O=C(CN1CCCCCC1)Nc1ccc(Br)cc1` [2-(azepan-1-yl)-N-(4-bromophenyl)acetamide], above 100 µM; under `CC1CCCN(CCC(=O)Nc2ccc(Br)cc2)C1` (stereo not given) [N-(4-bromophenyl)-3-(3-methylpiperidin-1-yl)propanamide], above 100 µM. The figure for `CC1(C)CC(NC(=O)C(=O)Nc2ccc(-n3cc(CCCCCO)nn3)cc2)CC(C)(C)N1` [N1-(4-(4-(5-hydroxypentyl)-1H-1,2,3-triazol-1-yl)phenyl)-N2-(2,2,6,6-tetramethylpiperidin-4-yl)oxalamide] is above 100 µM.

The values are drawn from BindingDB's records for doi:10.1016/j.bmc.2010.11.049 (Bryn Mawr College, 2011).
